Measurements as given in publication PMC9115111, “Metalloprotease Gp63-Targeting Novel Glycoside Exhibits Potential Antileishmanial Activity” (Frontiers in Cellular and Infection Microbiology, 2022).

Columns and labels:
[1] = tested on: J774.A1 murine macrophage cells; experiment: MTT cell viability assay on macrophages; assay type: cell-based
Experimental: (§1) The J774.A1 murine macrophage cells were grown in Roswell Park Memorial Institute (RPMI) 1640 medium in the presence of 10% (v/v) FBS and 100 U/ml penicillin−100 µg/ml streptomycin (Gibco, Invitrogen, Thermo Fisher Scientific, NY, USA) at 37°C (humidified) and 5% CO2. […] Madin–Darby canine kidney (MDCK) cells were obtained from the National Centre for Cell Science, Pune, India. MDCK cells were derived from the kidney tissue of an adult female Cocker Spaniel. These were grown in Dulbecco’s modified Eagle’s minimal essential medium (DMEM) in the presence of 10% (v/v) FBS and 100 U/ml penicillin−100 µg/ml streptomycin (Gibco, Invitrogen, Thermo Fisher Scientific, NY, USA) at 37°C (humidified) and 5% CO2 ([Ayana et al., 2018]; [Shivappagowdar et al., 2021]).
(§2) All the compounds were dissolved in dimethyl sulfoxide (DMSO) (Sigma-Aldrich) for 1 mM stock solution and were screened against promastigotes at a concentration of 5 µM. For Glycosides (Gly) 2, 6, and 8, a range of concentrations starting from 100 nM to 100 µM were screened against promastigote forms of parasite and mammalian cells. Parasites (AG83 and PKDL strain) treated with amphotericin B (3 µg/ml) (Sigma-Aldrich) were maintained as the positive control.
(§3) To evaluate the cytotoxic effects of 12 compounds on L. donovani promastigotes, LDH assay was performed. This assay involves the reduction of tetrazolium salts to formazan during LDH-mediated catalysis of lactate to pyruvate, which can be detected at […]. Rate of formazan formation is proportional to the release of LDH through damaged cell membranes. For the preliminary screening, the promastigotes were incubated with 12 compounds at a single concentration of 5 µM for a period of 72 h, and the released LDH was estimated ( Supplementary Figure S1A ). Amphotericin B-treated promastigotes were taken as the positive control. […] Having observed the antileishmanial effect of Gly2 on growth and proliferation of promastigotes, we next investigated the cytotoxicity of Gly2 on mammalian cells (MDCK, J774.1A) through MTT (3-(4, 5-dimethylthiazolyl-2)-2, 5-diphenyltetrazolium bromide) cell viability assay ( Supplementary Figures S1B, C ). […] The CC50 values of Gly2 analog was in the micromolar range. The selectivity index (SI) for the compound was calculated as the ratio between cytotoxicity (CC50) and activity (IC50) against promastigotes ( Table 1 ).

[2] = tested on: L. donovani promastigotes (AG83 strain); experiment: LDH cytotoxicity assay on promastigotes, AG83 strain; assay type: cell-based, Leishmania donovani
Experimental: Promastigote forms of L. donovani (MHOM/IN/1983/AG83) were cultured at 26°C in M199 (GIBCO, India), pH 7.4, supplemented with 10% (v/v) inactivated fetal bovine serum (FBS, GIBCO, India) and 0.02 mg/ml gentamycin (Life Technologies, USA). The clinical isolate of PKDL, BS12, was obtained as a gift from Prof. Mitali Chatterjee [Department of Pharmacology, Institute of Postgraduate Medical Education and Research (IPGMER), Kolkata, India]. BS12 was routinely cultured at 22°C in M199 (GIBCO, India) with 100 U/ml penicillin-streptomycin (Gibco, Invitrogen, Thermo Fisher Scientific, NY, USA), 8 μM hemin (4 mM stock made in 50% triethanolamine) (Sigma, USA), 25 mM 4-(2-hydroxyethyl)-1-piperazineethanesulfonic acid (HEPES), supplemented with 10% heat-inactivated FBS (GIBCO, India). Cultures were maintained between 10^6 and 10^7 cells/ml for continuous exponential growth. In addition, 1 × 10^6 cells/ml parasite count was constantly maintained for all the experiments ([Ramu et al., 2017]).
as §2
AG83 strain of L. donovani were exposed to various Gly compound concentrations (100 nM–100 µM) in a 96-well microtiter plate (100 µl/well volume) and were incubated for 72 h at 26°C. Finally, lactate dehydrogenase (LDH) cytotoxic assay was performed as per standard protocol (CytoTox 96 Non-Radioactive Cytotoxicity Assay-Promega, USA). The percent cytotoxicity of test compounds was calculated by normalizing with amphotericin B as 100%. Further percentage growth inhibition was calculated using the formula:
% Growth Inhibition = Gly treated LDH activity- Spontaneous LDH activity
/Maximum LDH activity- Spontaneous LDH activity * 100
As per the formula, the spontaneous LDH Activity = activity of the untreated cells and the maximum LDH activity = activity of the amphotericin B-treated cells. IC50 value for Gly2, 6, and 8 treated was generated for AG83 and PKDL strain of L. donovani using sigmoidal dose–response model with nonlinear regression tool ([Ramu et al., 2017]).

[3] = MTT cell viability assay on macrophages; assay type: cell-based, murine; conditions: mouse, J774.A1 macrophage cells; Table 1; macrophages
Experimental: as §1, §2, §3

[4] = tested on: L. donovani promastigotes; experiment: Hoechst/PI live/dead dual staining of promastigotes; assay type: cell-based, Leishmania donovani; conditions: 5 µM, 72 h
Experimental: The toxic effect of the three compounds, Gly2, 6, and 8 on promastigotes at 5 µM >IC50 concentration was measured by Hoechst and propidium iodide (PI) double staining. […], parasites were harvested, washed in 0.01 M PBS (pH = 7.4), and stained with Hoechst 33258 (1 µg/ml) (Life Technologies, USA) and PI (5 µg/ml) (Life Technologies, USA) followed by incubation for a period of 20 min at 37°C. Subsequently, cells were washed for excessive stain removal and visualized using fluorescence microscope with 510–560-nm filter block for PI red fluorescence and excitation/emission spectra at 361/497 for Hoechst ([López-Arencibia et al., 2015]).

[5] = tested on: L. donovani intracellular amastigotes in J774.A1 macrophages; experiment: Intramacrophage amastigote assay (Giemsa staining, J774.A1); assay type: cell-based, Leishmania donovani; conditions: treated at IC50 concentration, 24 h; untreated control ~5
Experimental: For evaluating the efficacy of compounds against intramacrophage amastigotes, Giemsa staining (Sigma-Aldrich) was performed. J774.A1 murine macrophage cells were plated at a cell density of 5 × 10^5 cell/well in a 6-well flat bottom plate. The cells were infected with late-stage L. donovani, rich in promastigotes at a ratio of 10:1. After 6 h, uninfected promastigotes were washed off with PBS.

[6] = Table 1, activity against promastigotes
[7] = Leishmania donovani, AG83 promastigotes, LDH assay 72 h, sigmoidal curve, normalised to amphotericin B 3 µg/ml as 100%
[8] = Leishmania donovani, Table 1, activity against promastigotes

| Structure (SMILES) | CC50 [1] [µM] | IC50 [2, 6] [µM] | CC50 [3] [µM] | dead parasites (PI positive) [4] | IC50 [2, 7] [µM] | IC50 [2, 8] [µM] | number of amastigotes per infected macrophage [5] |
| --- | --- | --- | --- | --- | --- | --- | --- |
| CCOC1O[C@H](CO)[C@@H](O)[C@H](O)[C@H]1NC(C)=O (stereo partly drawn) [Gly1, ethyl glycoside N-Acetyl-D-glucosamine] | 248 | 65 | – | – | – | – | – |
| CCCCCCOC1O[C@H](CO)[C@@H](O)[C@H](O)[C@H]1O (stereo partly shown) [Gly3] | 1680 | 12.7 | – | – | – | – | – |
| CCCCOC1O[C@H](COC(C)=O)[C@@H](OC(C)=O)[C@H](OC(C)=O)[C@H]1OC(C)=O (stereo partly shown) [Gly4] | 167 | 4.6 | – | – | – | – | – |
| CCCCCCOC1O[C@H](COC(C)=O)[C@@H](OC(C)=O)[C@H](OC(C)=O)[C@H]1OC(C)=O (stereo partly shown) [Gly5] | 159 | 5.97 | – | – | – | – | – |
| CC(=O)OC[C@H]1OC(OCCC(C)C)[C@H](OC(C)=O)[C@@H](OC(C)=O)[C@@H]1OC(C)=O (stereo partly shown) [Gly6] | – | – | 1030 | ~ 33.72% | 2.94 | 3.4 | ~ 3 amastigotes/macrophages |
| CCOC1O[C@H](COC(C)=O)[C@@H](OC(C)=O)[C@H](OC(C)=O)[C@H]1OC(C)=O (stereo partly shown) [Gly7] | 299 | 77 | – | – | – | – | – |
| CCCOC1O[C@H](COC(C)=O)[C@@H](OC(C)=O)[C@H](OC(C)=O)[C@H]1OC(C)=O (stereo partly drawn) [Gly8, (2R,3R,4S,5R)-2-(acetoxymethyl)-6-propoxytetrahydro-2H-pyran-3,4,5-triyl triacetate] | – | – | 959 | 75.47% | 1.61 | 1.6 | ~2 amastigotes/macrophages |
| CC(=O)OC[C@H]1OC(OC(C)C)[C@H](OC(C)=O)[C@@H](OC(C)=O)[C@@H]1OC(C)=O (stereo partly shown) [Gly9] | 256 | 36 | – | – | – | – | – |
| CCCOC1O[C@H](COC(C)=O)[C@@H](OC(C)=O)[C@H](OC(C)=O)[C@H]1NC(C)=O (stereo partly shown) [Gly10] | 239 | 25.2 | – | – | – | – | – |
| CC(=O)N[C@H]1[C@@H](OCCC(C)C)O[C@H](COC(C)=O)[C@@H](OC(C)=O)[C@@H]1OC(C)=O [Gly11] | 179 | 43 | – | – | – | – | – |
| CCCCO[C@H]1O[C@H](COC(C)=O)[C@@H](OC(C)=O)[C@H](OC(C)=O)[C@H]1NC(C)=O [Gly12] | 279 | 95 | – | – | – | – | – |
